According to patent US11202792B2, “CD99 inhibitors and their uses” (GEORGETOWN UNIVERSITY, priority 2016, dated 2021):
Like-named read-outs stand apart in the source and are kept apart here.

Tests used:
[1] = target: T1, CD99 homodimers in STA-ET-7.2 ES cells (Homo sapiens, UniProt P14209); assay: Chemical cross-linking with BS3, CD99 homodimer formation; format: cell-based; settings: 5 μmol/L, 1 h, then 1 mmol/L BS3; STA-ET-7.2 cells
T1 construct: STA-ET-7.2 ES cells, which express the highest level of CD99 protein among all ES cell lines; endogenous in cells; host or cells: STA-ET-7.2
T1 sequence (P14209 23-185): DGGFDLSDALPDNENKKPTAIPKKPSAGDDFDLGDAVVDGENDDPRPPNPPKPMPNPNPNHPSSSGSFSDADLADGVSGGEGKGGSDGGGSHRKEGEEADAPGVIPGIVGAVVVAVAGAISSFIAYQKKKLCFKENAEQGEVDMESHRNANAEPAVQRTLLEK
Procedure: The cells were rinsed 3 times with ice-cold PBS, and treated with 1 mmol/L BS^3 (Thermo Scientific) in PBS for 10 min at 37° C. according to manufacturer's instructions. […] Protein samples were then prepared by lysing the cross-linked cells in a lysis buffer as described above.
To address this, in a chemical cross-linking assay, STA-ET-7.2 ES cells were preincubated with the inhibitors for 1 h at a final concentration of 5 μmol/L followed by the addition of 1 mmol/L BS^3, a membrane-impermeable chemical cross-linking agent.

6647 and TC-71 ES cells = assay: Transwell cell migration assay; format: cell-based, human; settings: 24 h pre-treatment; cladribine 1 or 3 μmol/L, clofarabine 0.3 or 0.5 μmol/L
Procedure: Immunoblot analysis was performed on total cell lysates for ROCK2 and GAPDH expression. In FIG. 8B, TC-71 control and TC-CD99-shRNA #2 cells were treated with either drug at indicated concentrations for 1, 3 and 6 h. Immunoblot analysis was performed on total cell lysates for ROCK2 and GAPDH expression. In FIG. 8C, cell migration experiments were performed using Boyden chamber transwell migration assay with 10% serum serving as the chemoattractant in the lower chamber. […] The number of migrated cells was then quantified by counting the cells in the bottom chamber under the microscope. Asterisks indicate statistically significant differences between treatments (*p<0.05; vs. control using a Student's unpaired t test).
Motility assay was done using Trans-well chambers (Costar; Corning (Corning, N.Y.)) according to manufacturer's instructions.

IOR/OS9 OS cells = assay: Cell viability IC50, IOR/OS9; format: cell-based; settings: Homo sapiens
Procedure: (§1) The plate was installed into the RTCA system, and the electrical impedance (represented as cell index) was measured every 10 min.
(§2) To investigate the relationship between the level of CD99 expression and drug sensitivity, the endogenous expression of CD99 was determined in a panel of 9 ES and 13 non-ES cell lines. The recombinant purified CD99-ECD protein was used to generate standard curves for immunoquantification of CD99 expression by immunoblotting (FIGS. 6B and 6C).

[2] = target: T2, interaction of CD99 with cyclophilin A and PKA-RIIα (Homo sapiens, UniProt P14209); assay: Co-immunoprecipitation of CD99 with cyclophilin A and PKA-RIIα; format: cell-based; settings: 3 μmol/L, 6 h; RDES or STA-ET-7.2 cells
T2 construct: Endogenous CD99 was immunoprecipitated from RDES or STA-ET-7.2 ES cells; endogenous in cells; host or cells: RDES or STA-ET-7.2
T2 sequence (P14209 23-185): as above
Procedure: In FIG. 7A, STA-ET-7.2 ES cells were incubated with either drug at 5 μmol/L concentration or DMSO for 1 h. The cells were treated with cross-linking agent BS^3 as described in the Examples. The lysates were resolved in 12% SDS-PAGE followed by immunoblotting with anti-actin and anti-CD99 clone 013 antibodies. M and D represent monomeric and dimeric forms of CD99, respectively. Values given below the lanes on the immunoblot represent the relative density of the bands, and were determined using ImageJ 1.48v software. In FIG. 7B, RDES or STA-ET-7.2 ES cells were treated with 3 μmol/L of either drug for 6 h. Endogenous CD99 was immunoprecipitated from total cell lysates using either anti-CD99 clone 12E7 antibody or anti-CD99 clone 013 antibody. Immunoblot (IB) analysis was performed for cyclophilin A, CD99 and PKA-RIIα using both cell lysates (TCL) and immunoprecipitated (IP) samples. Values given below the lanes on each immunoblot represent the relative density of the bands, and were determined using ImageJ 1.48v software. In FIG. 7C, SAOS-2 and U-2 OS cells were transiently transfected with an empty mammalian expression vector (EV) or an expression construct containing a cDNA encoding full length human CD99. The growth rate of cells was monitored by electrical impedance in real time. […]

TC-71 xenografts = assay: Orthotopic TC-71 xenograft, i.p. administration; format: in vivo, SCID/beige mice; settings: clofarabine 30 mg/kg, cladribine 20 mg/kg; for event-free survival: i.p. once daily 14 days, vs vehicle; for tumor growth: i.p.
Procedure: The antitumor activity of drugs through intraperitoneal (i.p.) administration given once daily was determined. […] The in vivo potencies of drug treatments were evaluated by event-free survival curves, where tumors that reached 1.0 cm^3 in size considered an event.

[3] = tested on: leukemia cell lines MOLT-4 and Jurkat; assay: Cell viability IC50 panel, leukemia cell lines; format: cell-based; settings: Homo sapiens
Procedure: as §1
Therefore, two leukemia cell lines, MOLT-4 and Jurkat, were included as positive controls in this experiment.

IOR/MOS OS cells = assay: Cell viability IC50, IOR/MOS; format: cell-based; settings: Homo sapiens
Procedure: as §1, §2

[4] = 48 h, read-out: average IC50 concentration for leukemia cell lines
[5] = MOLT-4 and Jurkat, read-out: IC50, leukemia cell lines

| Structure (SMILES) | formation of CD99 homodimers [1] | number of migrated cells (6647 and TC-71 ES cells) | IC50 (IOR/OS9 OS cells) [nM] | amount of coprecipitated cyclophilin A and PKA-RIIα [2] | event-free survival (TC-71 xenografts) | event-free survival (TC-71 xenografts; listed as Clofarabine) | tumor growth (TC-71 xenografts) | IC50 [3, 4] [nM] | IC50 [3, 5] [nM] | IC50 (IOR/MOS OS cells) [nM] |
| --- | --- | --- | --- | --- | --- | --- | --- | --- | --- | --- |
| Nc1nc(Cl)nc2c1ncn2[C@@H]1O[C@H](CO)[C@@H](O)[C@@H]1F [clofarabine] | blocked | significantly decreased | > 10000 | decreased significantly | not statistically significant | significantly improved | significant inhibition of tumor growth | 180 ± 10 | < 1000 | > 10000 |
| Nc1nc(Cl)nc2c1ncn2[C@H]1C[C@H](O)[C@@H](CO)O1 [cladribine] | significantly reduced | significantly decreased | > 30000 | decreased significantly | significantly different |  | grew slower | 340 ± 30 | < 1000 | > 30000 |
